# Results taken from patent publication US4826975A, “Fused cycloaliphatic aminoalcohols” (Maggioni-Winthrop S.P.A., priority 1986, dated 1989).
# What was measured:
# toxic adrenaline doses = assay: animal or person; type: in vivo, mice; details: Mus musculus, po; 2 hrs before 14.5 mg/kg 1-adrenaline i.p., mortality after 24 hrs; read-out: DP50 (50% protective dose)
# gasping time in mice = assay: anti-hypoxic activity, gasping time after decapitation; type: in vivo
# Experimental: The anti-hypoxic activity was determined according to Yasuda et al., Arch. Int. Pharmacodyn. 233, 136, 1978.
# Groups of 10 male mice (21-23 g) were treated orally with vehicle (controls) and the invention compounds. After 45 or 90 minutes the animals were decapitated and the gasping time was determined. Table 6 gives the results obtained after administration of some of the invention compounds which display an activity higher than Suloctidil.
# [1] = oral acute toxicity in male mice; details: mouse, in vivo
# Experimental: The oral acute toxicity in male mice of the invention compound is very low. […]; and higher than 2,000 mg/kg for MG 38005, MG 28401, MG 28414 and MG 28427.
# platelet aggregation = assay: effect on collagen-stimulated platelet aggregation, ex vivo; type: in vivo; details: Rattus norvegicus, 0.15 mM/kg oral, 1 hr, collagen 2-4 mcg/ml, read-out: % inhibition, Aggregation rate
# Experimental: The effect on platelet aggregation was tested ex vivo according to the method of Minsker, (J. Pharmacol. Exp. Ther. 210, 37, 1979) slightly modified. Groups of 3 rats (280-350 g) were treated orally with vehicle (controls) and compounds (0.15 mM/kg). Blood was collected and pooled from rats of each group 1 hr after treatment and the platelet rich plasma (PRP) was separated by centrifugation.
# Platelet aggregation was stimulated with collagen (2-4-mcg/ml) added simultaneously to PRP of control and treated rats. The results were assessed photometrically. Each test was replicated 4 times in groups of 3 animals. Aggregation curves were evaluated in terms of two parameters namely maximum optical density variation (maximum aggregation) and aggregation rate.
# Normolipemic rats = assay: hypolipemic activity in normolipemic rats (serum lipids, liver weight); type: in vivo, rat
# Experimental: Total cholesterol (CHOL), triglycerides (TG), HDL cholesterol CHOL-HDL) were assayed in serum and the liver was weighed.
# DOCA rats = type: in vivo, rat; details: 15 mg/kg po
# Experimental: Changes in blood pressure (mm Hg) before (T=O) and after treatment (2, 4 and 6 hrs) were measured according to the method of tail artery plethysmography reported in "Spontaneously hypertensive rats (SHR), guidelines for breeding, care and use", SHR Conference, 1976, page 11.
# The heart rate was also […] (BP Recorder No. 8006 supplied by Basile, Comerio, Italy). The arterial pressure before the treatment was 210±10 mmHg in SHR and 200±10 in DOCA rats.
# SHR = assay: anti-hypertensive activity in spontaneously hypertensive (SH) rats, tail artery plethysmography; details: 15 mg/kg po
# [2] = 100 mg/kg p.o., pretreatment 90 min.
# [3] = 100 mg/kg p.o., pretreatment 45 min.
smiles,measurement,setting,value
"COc1cc2c(c(OC)c1OC)CC[C@H](N1CCC(n3c(=O)[nH]c4cc(Cl)ccc43)CC1)[C@H]2O (relative stereo) [MG 16456, trans-2-[4(2-Oxo-5-chloro-1-benzimidazolinyl)-1-piperidinyl]-5,6,7-trimethoxy-1-tetralol]",ED50,toxic adrenaline doses,1.85 mg/kg
same,"Gasping time, % diff. from control",gasping time in mice; [2],+36.3%
"CCCCCCCCN[C@H]1Cc2cc(OC)c(OC)cc2[C@@H]1O (relative stereo) [MG 28400, trans 5,6-Dimethoxy-2-(n-octylamino)-1-indanol]","Gasping time, % diff. from control",gasping time in mice; [3],+53.8%
same,LD50,[1],> 500 mg/kg
"COc1cc2c(cc1OC)[C@@H](O)[C@H](N1CCN(C(=O)C=Cc3ccccc3)CC1)C2 (relative stereo) [MG 28414, trans 2-[4-(1-Oxo-3-phenyl-2-propenyl)-1-piperazinyl]-5,6-dimethoxy-1-indanol]",inhibition at 0.15 mmol/kg,platelet aggregation,58%
same,LD50,[1],> 2000 mg/kg
"CCCCCCCCN[C@@H]1Cc2c(cc(OC)c(OC)c2OC)[C@H]1O (relative stereo) [MG 38006, trans 2-(n-Octylamino)-4,5,6-trimethoxy-1-indanol]","Gasping time, % diff. from control",gasping time in mice; [3],+33.2%
same,LD50,[1],> 1000 mg/kg
"COc1cc2c(c(OC)c1OC)CC[C@H](N1CCC(n3c(=O)[nH]c4ccccc43)CC1)[C@H]2O (relative stereo) [MG 38028, trans 2-[4-(2-Oxo-1-benzimidazolidinilyl)-1-piperidinyl]-5,6,7-trimethoxy-1-tetralol]",ED50,toxic adrenaline doses,0.73 mg/kg
"COc1cc2c(cc1OC)[C@@H](O)[C@@H](N1CCN(c3ccccc3OC)CC1)C2 (relative stereo) [MG 38100, cis-2-[4-(2-Methoxyphenyl)-1-piperazinyl]-5,6-dimethoxy-1-indanol]",ED50,toxic adrenaline doses,8.5 mg/kg
same,"Gasping time, % diff. from control",gasping time in mice; [3],+95.7%
same,LD50,[1],> 500 mg/kg
"COc1cc2c(c(OC)c1OC)C[C@H](N1CCC(NC(=O)c3ccccc3)CC1)[C@@H]2O (relative stereo) [MG 38107, cis-2-(4-Benzamido-1-piperidinyl)-4,5,6-trimethoxy-1-indanol]",ED50,toxic adrenaline doses,2.45 mg/kg
same,"CHOL, % difference from control",Normolipemic rats; 0.185 mM/kg po × 4 days,-35.7%
same,"CHOL-HDL, % difference from control",Normolipemic rats; 0.185 mM/kg po × 4 days,-8.5%
same,"Liver weight, % difference from control",Normolipemic rats; 0.185 mM/kg po × 4 days,+5.6%
same,"TG, % difference from control",Normolipemic rats; 0.185 mM/kg po × 4 days,-50.9%
same,"CHOL, % difference from control",Normolipemic rats; 0.370 mM/kg po × 4 days,-30.7%
same,"CHOL-HDL, % difference from control",Normolipemic rats; 0.370 mM/kg po × 4 days,-26.3%
same,"Liver weight, % difference from control",Normolipemic rats; 0.370 mM/kg po × 4 days,0%
same,"TG, % difference from control",Normolipemic rats; 0.370 mM/kg po × 4 days,-58.5%
same,hypolipemic effect / activity (in words),Normolipemic rats; oral,higher than with Clofibrate
same,effect on CHOL and TG (in words),"Normolipemic rats; oral, 4 days",marked decrease both of CHOL and TG
same,LD50,[1],> 1000 mg/kg
"COc1cc2c(cc1OC)[C@@H](O)[C@@H](N1CCC(NC(=O)c3ccccc3)CC1)C2 (relative stereo) [MG 38112, cis 2-(4-Benzamido-1-piperidinyl)-5,6-dimethoxy-1-indanol]",Max. changes in systolic pressure,DOCA rats,-19 mmHg
same,ED50,toxic adrenaline doses,4.4 mg/kg
same,"CHOL, % difference from control",Normolipemic rats; 0.185 mM/kg po × 4 days,-45.2%
same,"CHOL-HDL, % difference from control",Normolipemic rats; 0.185 mM/kg po × 4 days,-18.6%
same,"Liver weight, % difference from control",Normolipemic rats; 0.185 mM/kg po × 4 days,0%
same,"TG, % difference from control",Normolipemic rats; 0.185 mM/kg po × 4 days,-41.8%
same,"CHOL, % difference from control",Normolipemic rats; 0.370 mM/kg po × 4 days,-52.7%
same,"CHOL-HDL, % difference from control",Normolipemic rats; 0.370 mM/kg po × 4 days,-21.4%
same,"Liver weight, % difference from control",Normolipemic rats; 0.370 mM/kg po × 4 days,+3.9%
same,"TG, % difference from control",Normolipemic rats; 0.370 mM/kg po × 4 days,-58.9%
same,hypolipemic effect / activity (in words),Normolipemic rats; oral,higher than with Clofibrate
same,effect on CHOL and TG (in words),"Normolipemic rats; oral, 4 days",marked decrease both of CHOL and TG
same,LD50,[1],> 1000 mg/kg
same,Max. changes in systolic pressure,SHR,-35 mmHg
"COc1cc2c(c(OC)c1OC)C[C@@H](N1CCC(n3c(=O)[nH]c4cc(Cl)ccc43)CC1)[C@H]2O (relative stereo) [MG 38119, cis-2-[4-(2-Oxo-5-chloro-1-benzimidazolinyl)-1-piperidinyl]-4,5,6-trimethoxy-1-indanol]",ED50,toxic adrenaline doses,4.4 mg/kg
"COc1cc2c(cc1OC)[C@H](O)[C@H](N1CCC(n3c(=O)[nH]c4cc(Cl)ccc43)CC1)C2 (relative stereo) [MG 38121, cis 2-[4-(2-Oxo-5-chloro-1-benzimidazolinyl)-1-piperidinyl]-5,6-dimethoxy-1-indanol]",ED50,toxic adrenaline doses,2.75 mg/kg
"COc1cc2c(c(OC)c1OC)C[C@H](N1CCC(n3c(=O)[nH]c4cc(Cl)ccc43)CC1)[C@H]2O (relative stereo) [MG 38122, trans-2-[4-(2-Oxo-5-chloro-1-benzimidazolinyl)-1-piperidinyl]-4,5,6-trimethoxy-1-indanol]",Max. changes in systolic pressure,DOCA rats,-28 mmHg
same,Max. changes in systolic pressure,SHR,-41.9 mmHg
"COc1cc2c(cc1OC)[C@H](O)[C@@H](N1CCC(n3c(=O)[nH]c4cc(Cl)ccc43)CC1)C2 (relative stereo) [MG 38131, trans-2-[4-(2-Oxo-5-chloro-1-benzimidazolinyl)-1-piperidinyl]-5,6-dimethoxy-1-indanol]","CHOL, % difference from control",Normolipemic rats; 0.370 mM/kg po × 4 days,~ 0%
same,"CHOL-HDL, % difference from control",Normolipemic rats; 0.370 mM/kg po × 4 days,+57.2%
same,"Liver weight, % difference from control",Normolipemic rats; 0.370 mM/kg po × 4 days,+6.9%
same,"TG, % difference from control",Normolipemic rats; 0.370 mM/kg po × 4 days,-41.4%
"Fc1ccc(C(c2ccc(F)cc2)N2CCN(C/C=C/c3ccccc3)CC2)cc1 [Flunarizine, reference compound]","Gasping time, % diff. from control","gasping time in mice; 50 mg/kg p.o., pretreatment 90 min.",+68.7%
"COc1cc2c(c(OC)c1OC)CC(N1CCC(n3c(=O)[nH]c4ccccc43)CC1)C2=O (stereo not drawn) [MG 38005, 2-[4-(2-oxo-1-benzimidazolinyl)-1-piperidinyl]-4,5,6-trimethoxy-1-indanone]",Max. changes in systolic pressure,DOCA rats,-27 mmHg
same,LD50,[1],> 2000 mg/kg
same,Max. changes in systolic pressure,SHR,-42 mmHg
COc1cc2c(cc1OC)C(=O)C(N1CCC(NC(=O)c3ccccc3)CC1)C2 (stereo not drawn) [MG 38128],"CHOL, % difference from control",Normolipemic rats; 0.370 mM/kg po × 4 days,~ 0%
same,"CHOL-HDL, % difference from control",Normolipemic rats; 0.370 mM/kg po × 4 days,+46.8%
same,"Liver weight, % difference from control",Normolipemic rats; 0.370 mM/kg po × 4 days,+8.6%
same,"TG, % difference from control",Normolipemic rats; 0.370 mM/kg po × 4 days,-38.8%
same,effect on TG and CHOL-HDL (in words),"Normolipemic rats; oral, 4 days",decrease TG and increase CHOL-HDL
"Cc1ccc(N(CC2=NCCN2)c2cccc(O)c2)cc1 [Phentolamine, reference compound]",ED50,toxic adrenaline doses,8 mg/kg
"COc1cc2nc(N3CCN(C(=O)c4ccco4)CC3)nc(N)c2cc1OC [Prazosin, reference compound]",ED50,toxic adrenaline doses,0.7 mg/kg
"CC(C)(Sc1cc(C(C)(C)C)c(O)c(C(C)(C)C)c1)Sc1cc(C(C)(C)C)c(O)c(C(C)(C)C)c1 [Probucol, reference compound]","CHOL, % difference from control",Normolipemic rats; 0.205 mM/kg po × 8 days,-25.0%
same,"CHOL-HDL, % difference from control",Normolipemic rats; 0.205 mM/kg po × 8 days,-26%
same,"Liver weight, % difference from control",Normolipemic rats; 0.205 mM/kg po × 8 days,+4%
same,"TG, % difference from control",Normolipemic rats; 0.205 mM/kg po × 8 days,-28.0%
same,"CHOL, % difference from control",Normolipemic rats; 0.820 mM/kg po × 4 days,~ 0%
same,"CHOL-HDL, % difference from control",Normolipemic rats; 0.820 mM/kg po × 4 days,+18.5%
same,"Liver weight, % difference from control",Normolipemic rats; 0.820 mM/kg po × 4 days,~ 0%
same,"TG, % difference from control",Normolipemic rats; 0.820 mM/kg po × 4 days,~ 0%
same,hypolipemic effect / activity (in words),Normolipemic rats; oral,moderate and is noted only after prolonged treatment (8 days)
"CCCCCCCCNC(C)C(O)c1ccc(SC(C)C)cc1 (stereo not drawn) [Suloctidil, reference compound]",inhibition at 0.15 mmol/kg,platelet aggregation,57.5%
same,"Gasping time, % diff. from control",gasping time in mice; [3],+27.5%
same,"Gasping time, % diff. from control",gasping time in mice; [2],+11.7%
